Experimental findings from ChEMBL document CHEMBL1821576, “Synthesis and antitumour activity of β-hydroxyisovalerylshikonin analogues” (Eur J Med Chem, 2011) are described below.

In test [1] the test system is DU-145. In words: Cytotoxicity against human DU145 cells by MTT assay. Type of test: functional, cell-based. On the technique in general: Formazan colour is commonly taken as a measure of viable cells.
The test system of test [2] is HeLa. Put plainly: Cytotoxicity against human HeLa cells by MTT assay. The test is classed as functional, cell-based.
Test [3] relates to DU-145. In words: Ratio of cyclophosphamide IC50 to compound IC50 for human DU145 cells. Type of test: functional.
For test [4], the system named is HeLa. Put plainly: Ratio of cyclophosphamide IC50 to compound IC50 for human HeLa cells. Type of test: functional.
The test system of test [5] is HeLa. Put plainly: Ratio of beta-hydroxyisovalerylshikonin IC50 to compound IC50 for human HeLa cells. The test is classed as functional.
Test [6] deals with DU-145. Put plainly: Ratio of beta-hydroxyisovalerylshikonin IC50 to compound IC50 for human DU145 cells. Type of test: functional.

Regarding `CCCCC(C)(O)CC(=O)O[C@H](CC=C(C)C)C1=CC(=O)c2c(O)ccc(O)c2C1=O` (mixture of isomers), the IC50 amounted to 76.5 µM in the test with DU-145 [1] and 60.6 µM with HeLa [2].

Regarding `CCCC(CC(=O)O[C@H](CC=C(C)C)C1=CC(=O)c2c(O)ccc(O)c2C1=O)OC(C)=O` (mixture of isomers), the concentration for half-maximal inhibition (IC50) in the test on DU-145 [1] is 55.7 µM; with HeLa [2], 51.2 µM.

Take `CC(C)=CC[C@@H](OC[C@H](C)O)C1=CC(=O)c2c(O)ccc(O)c2C1=O`: the concentration for half-maximal inhibition (IC50) turned out to be 24.5 µM with DU-145 [1] and 40.3 µM in the test with HeLa [2].

Consider `CCC(CO[C@H](CC=C(C)C)C1=CC(=O)c2c(O)ccc(O)c2C1=O)OC` (mixture of isomers), for which the figures for the half-maximal inhibitory concentration (IC50) in the test with DU-145 [1] and in the test with HeLa [2] were 45.7 µM and 63.5 µM, respectively.

As to `CC(C)=CC[C@@H](OC[C@@H](C)O)C1=CC(=O)c2c(O)ccc(O)c2C1=O`, the values for the IC50 in the test with DU-145 [1] and in the test with HeLa [2] were 14.3 µM and 22.5 µM, respectively.

As to `CC(C)=CC[C@@H](OC(=O)C1CCCCO1)C1=CC(=O)c2c(O)ccc(O)c2C1=O` (stereo partly drawn), the IC50 in the test with DU-145 [1] was 24.7 µM; in the test on HeLa [2] it was above 100 µM.

Consider `CC(C)=CC[C@@H](OC(=O)CC(O)c1ccccc1)C1=CC(=O)c2c(O)ccc(O)c2C1=O` (mixture of isomers), for which the 50% inhibitory concentration (IC50) in the test on DU-145 [1] worked out at 17 µM; in the test on HeLa [2] it was 44.5 µM.

Turning to `CC(C)=CC[C@@H](OC(=O)c1ccco1)C1=CC(=O)c2c(O)ccc(O)c2C1=O`, the 50% inhibitory concentration (IC50) is above 100 µM in the test on DU-145 [1] and 80.3 µM in the test on HeLa [2].

Regarding `CC(C)=CC[C@@H](OCC(C)O)C1=CC(=O)c2c(O)ccc(O)c2C1=O` (mixture of isomers), the IC50 came out at 16.1 µM in the test with DU-145 [1] and 24.7 µM with HeLa [2].

Take `CC[C@@](C)(O)CC(=O)O[C@H](CC=C(C)C)C1=CC(=O)c2c(O)ccc(O)c2C1=O`: the concentration for half-maximal inhibition (IC50) with DU-145 [1] was 12.7 µM; in the test on HeLa [2], 17.9 µM.

`COCCO[C@H](CC=C(C)C)C1=CC(=O)c2c(O)ccc(O)c2C1=O`: the figures for the concentration for half-maximal inhibition (IC50) in the test on DU-145 [1] and with HeLa [2] were 43.2 µM and 62.4 µM, respectively.

As to `CCC(C)(O)CC(=O)O[C@H](CC=C(C)C)C1=CC(=O)c2c(O)ccc(O)c2C1=O` (mixture of isomers), the half-inhibitory concentration (IC50) with DU-145 [1] came to 16 µM; in the test on HeLa [2], 25.2 µM.

With `CC(C)=CC[C@@H](OC(=O)CC(C)(O)c1ccccc1)C1=CC(=O)c2c(O)ccc(O)c2C1=O` (mixture of isomers), the half-inhibitory concentration (IC50) with DU-145 [1] is above 100 µM; in the test with HeLa [2] it was 85.7 µM.

With `CCCC(C)(O)CC(=O)O[C@H](CC=C(C)C)C1=CC(=O)c2c(O)ccc(O)c2C1=O` (mixture of isomers), the IC50 in the test with DU-145 [1] is 75 µM; with HeLa [2] it was 72 µM.

As for `CCC(CO[C@H](CC=C(C)C)C1=CC(=O)c2c(O)ccc(O)c2C1=O)OC(C)=O` (mixture of isomers), the IC50 with DU-145 [1] amounted to 25.4 µM; in the test with HeLa [2], 44 µM.

Regarding `CC(C)=CC[C@@H](OCCO)C1=CC(=O)c2c(O)ccc(O)c2C1=O`, the “Ratio IC50” value is listed as 5 with DU-145 [3], 4 in the test with HeLa [4], 3 in the test with HeLa [5] and 2 with DU-145 [6]. The half-inhibitory concentration (IC50) with DU-145 [1] stood at 9.9 µM; with HeLa [2], 18.6 µM.

For `CC(C)=CC[C@@H](OC(=O)CC(C)(C)O)C1=CC(=O)c2c(O)ccc(O)c2C1=O` [BETA-HYDROXYISOVALERYLSHIKONIN], the IC50 with DU-145 [1] is 16.8 µM; in the test on HeLa [2], 55 µM.

With `CCCCCCC(C)(O)CC(=O)O[C@H](CC=C(C)C)C1=CC(=O)c2c(O)ccc(O)c2C1=O` (mixture of isomers), the IC50 in the test on DU-145 [1] and in the test on HeLa [2] was above 100 µM throughout.

`CC(=O)OCCO[C@H](CC=C(C)C)C1=CC(=O)c2c(O)ccc(O)c2C1=O`: the IC50 in the test on DU-145 [1] came to 15.5 µM; with HeLa [2] it was 41.5 µM.

Consider `CC(C)=CC[C@@H](OC(=O)CC(C)(O)C(C)C)C1=CC(=O)c2c(O)ccc(O)c2C1=O` (mixture of isomers), for which the values for the IC50 in the test with DU-145 [1] and in the test on HeLa [2] were 16.9 µM and 27.7 µM, respectively.

Take `CC(C)=CC[C@@H](OC(=O)c1ccoc1)C1=CC(=O)c2c(O)ccc(O)c2C1=O`: the 50% inhibitory concentration (IC50) with DU-145 [1] and in the test with HeLa [2] was above 100 µM each time.

In the case of `CCC(O)CO[C@H](CC=C(C)C)C1=CC(=O)c2c(O)ccc(O)c2C1=O` (mixture of isomers), the values for the IC50 in the test with DU-145 [1] and in the test with HeLa [2] were 16.4 µM and 28.7 µM, respectively.

As for `O=P1(N(CCCl)CCCl)NCCCO1` (stereo not drawn) [CYCLOPHOSPHAMIDE ANHYDROUS], the IC50 in the test on DU-145 [1] turned out to be 52.5 µM; in the test with HeLa [2], 71.4 µM.

As for `CC(C)=CC[C@@H](OC(=O)C1CCCO1)C1=CC(=O)c2c(O)ccc(O)c2C1=O` (stereo partly drawn), the “Ratio IC50” value is on record as 5 with DU-145 [3] and 4 with HeLa [4]. Also, the IC50 amounted to 10.5 µM in the test on DU-145 [1] and 17 µM in the test on HeLa [2].

Regarding `CC(C)=CC[C@@H](OC(=O)C1CCCOC1)C1=CC(=O)c2c(O)ccc(O)c2C1=O` (stereo partly drawn), the 50% inhibitory concentration (IC50) in the test on DU-145 [1] came out at 29.7 µM; in the test with HeLa [2] it was 60.5 µM.

Turning to `CC(C)=CC[C@@H](OC(=O)C1CCOC1)C1=CC(=O)c2c(O)ccc(O)c2C1=O` (stereo partly drawn), the figures for the IC50 with DU-145 [1] and in the test on HeLa [2] were 47.5 µM and 73.5 µM, respectively.

For the compound `CCCC(O)CC(=O)O[C@H](CC=C(C)C)C1=CC(=O)c2c(O)ccc(O)c2C1=O` (mixture of isomers), the 50% inhibitory concentration (IC50) with DU-145 [1] is above 100 µM; in the test on HeLa [2] it was 59.3 µM.

For the compound `CC(=O)OCCC(=O)O[C@H](CC=C(C)C)C1=CC(=O)c2c(O)ccc(O)c2C1=O`, the half-maximal inhibitory concentration (IC50) came out at 15.7 µM with DU-145 [1] and 17.3 µM in the test on HeLa [2].

Turning to `CC(C)=CC[C@@H](OC(=O)CCO)C1=CC(=O)c2c(O)ccc(O)c2C1=O`, the IC50 in the test with DU-145 [1] amounted to 55.3 µM; in the test with HeLa [2], 67.6 µM.

As to `CC[C@](C)(O)CC(=O)O[C@H](CC=C(C)C)C1=CC(=O)c2c(O)ccc(O)c2C1=O` (racemic), the IC50 with DU-145 [1] was 20.5 µM; with HeLa [2] it was 30.2 µM.

Consider `COC(C)CO[C@H](CC=C(C)C)C1=CC(=O)c2c(O)ccc(O)c2C1=O` (mixture of isomers), for which the values for the 50% inhibitory concentration (IC50) in the test on DU-145 [1] and in the test on HeLa [2] were 16.6 µM and 53.4 µM, respectively.

On to `CCCCC(CC(=O)O[C@H](CC=C(C)C)C1=CC(=O)c2c(O)ccc(O)c2C1=O)OC(C)=O` (stereo partly drawn), for which the IC50 with DU-145 [1] amounted to 67.7 µM; in the test with HeLa [2], 73.5 µM.

For the compound `O=c1[nH]cc(F)c(=O)[nH]1` [FLUOROURACIL], the IC50 in the test on DU-145 [1] and with HeLa [2] was above 100 µM in each case.

On to `CC(=O)OC(C)CO[C@H](CC=C(C)C)C1=CC(=O)c2c(O)ccc(O)c2C1=O` (mixture of isomers), for which the figures for the IC50 in the test with DU-145 [1] and in the test on HeLa [2] were 16.6 µM and 40.1 µM, respectively.

Consider `CCC(O)(CC)CC(=O)O[C@H](CC=C(C)C)C1=CC(=O)c2c(O)ccc(O)c2C1=O`, for which the results for the IC50 in the test on DU-145 [1] and in the test on HeLa [2] were 67 µM and 52 µM, respectively.

For `CCCCC(O)CC(=O)O[C@H](CC=C(C)C)C1=CC(=O)c2c(O)ccc(O)c2C1=O` (mixture of isomers), the concentration for half-maximal inhibition (IC50) in the test with DU-145 [1] stood at 45.3 µM; in the test with HeLa [2] it was 72.2 µM.

Usually IC50 stands for the concentration that inhibits the measured activity by half. The low end stands for inhibition by little substance, the high end for a need for much substance.
